Patent US5036008A, “Antitumor antibiotic BU-3285T” (Bristol-Myers Company, priority 1990, dated 1991)
≈ marks a conversion by molar mass, not a printed value. Entries after “also recorded” stand apart in the source; their conditions may differ.

Columns and labels:
[1] = tested on: Sporothrix schenckii IF08158; assay: microbe, parasite or virus in culture; settings: IF08158, 40 h, pH 7
Experimental: (§3) In vitro antifungal activity was determined against various fungi by the serial agar dilution method. Sabouraud dextrose agar (pH 7.0) was used for the experiment. The inoculum size was adjusted to 10^6 CFU/ml. After incubation at 28° C. for 40 hours, the minimum inhibitory concentration (MIC) was examined.

[2] = tested on: Fusarium moniliforme A2284; assay: In vitro antifungal activity, serial agar dilution; settings: Fusarium verticillioides, A2284, 40 h, pH 7
Experimental: as §3

fungi = assay: In vitro antifungal activity, overall statement; settings: various fungi
Experimental: as §3

[3] = tested on: B16-F10 (murine melanoma) cells; assay: In vitro cytotoxicity (Table 6); format: cell-based; settings: Mus musculus; B16-F10, 72 hrs, neutral red
Experimental: (§1) BU-3285T was tested for in vitro cytotoxicity against several murine and human tumor cell lines and for in vivo antitumor activity in mice. Mitomycin C was used as a reference compound in both in vitro and in vivo experiments. B16-F10 (murine melanoma) and Moser (human colorectal carcinoma) cells were grown to the logarithmic phase in an enriched Eagle minimum essential medium supplemented with fetal calf serum (FCS, 10%) and kanamycin (60 μg/ml); HCT-116 (human colon carcinoma) cells were in McCoy's 5A medium supplemented with FCS (10%), penicillin (100 U/ml) and streptomycin (100 μg/ml); and P388 (murine lymphocytic leukemia) cells and its vincristine-resistant subline (P388/VCR) were in RPMI 1640 medium supplemented with FCS (10%), penicillin (100 U/ml) and streptomycin (100 μg/ml).
(§2) B16-F10, Moser, HCT-116 and P388 cells were harvested and implanted into wells of a 96-well (for B16-F10, Moser and HCT-116 cells) or a 24-well (for P388 cells) tissue culture plate with test materials at the inoculum sizes of 3×10^4, 6 ×10^4, 6×10^4 and 2×10^4 cells/ml, respectively. They were incubated at 37° C. in a humidified atmosphere of 5% CO2 and 95% air for 72 hrs. […] For P388 cells, the number of viable cells was determined by a Coulter counter.

[4] = tested on: HCT-116 (human colon carcinoma) cells; assay: In vitro cytotoxicity (Table 6); format: cell-based; settings: HCT-116, 72 hrs, neutral red
Experimental: as §1, §2

[5] = tested on: P388 (murine lymphocytic leukemia) cells; assay: In vitro cytotoxicity (Table 6); format: cell-based; settings: Mus musculus; P388, 72 hrs, Coulter counter
Experimental: as §1, §2

[6] = tested on: Trichophyton mentagrophytes D155; assay: In vitro antifungal activity, serial agar dilution; settings: D155, 40 h, pH 7
Experimental: as §3

T. mentagrophytes #4329 = assay: In vitro antifungal activity, serial agar dilution; settings: Trichophyton mentagrophytes, 40 h, pH 7
Experimental: as §3

[7] = tested on: protein biosynthesis in L1210 leukemia cells; assay: Inhibition of macromolecule biosynthesis, protein (Table 7); format: cell-based, murine
Experimental: Inhibitory effects of BU-3285T on macromolecule biosynthesis (DNA, RNA and protein) were determined in cultured L1210 murine leukemia cells. The cells (5×10^5 cells/ml) were incubated with the compound at 37° C. for 15 minutes and then further incubated for 60 minutes after the addition of labelled precursor, ^3 H-thymidine, ^14 C-uridine or ^3 H-leucine into the cultured mixture. After washing with chilled 5% trichloroacetic acid solution, the radioactivity incorporated into the acid-insoluble fraction of the cells was determined by a liquid scintillation counter.

L1210 leukemia = assay: In vivo antitumor activity against L1210 leukemia (Table 9); settings: for Body wt. change on day 6 / MST (median survival time) / T/C: Q1D × 3
C. albicans A9540 = assay: In vitro antifungal activity, serial agar dilution; settings: Candida albicans, A9540, 40 h, pH 7
Experimental: as §3

P388 leukemia = assay: In vivo antitumor activity against P388 leukemia (Table 8); settings: for Body wt. change on day 4 / MST (median survival time) / T/C: Q1D × 3
[8] = 0.1 mg/kg/day ip, significant if T/C ≥ 125%
[9] = 0.3 mg/kg/day ip, *2 significant, T/C ≥ 125%
[10] = 1 mg/kg/day ip, *2 significant, T/C ≥ 125%
[11] = 3 mg/kg/day ip, *2 significant, T/C ≥ 125%
[12] = 10 mg/kg/day ip, *2 significant, T/C ≥ 125%

CCCCC/C=C/C=C\C=C/C(O)C(C)C(C/C=C/C1OC(=O)C=CC1O)OS(=O)(=O)O (centres unmarked) [BU-3285T]
MIC [1]: 100 µg/mL (≈ 213 µM) | MIC [2]: 25 µg/mL (≈ 53.1 µM) | antifungal activity in vitro (fungi): exhibits in vitro antifungal activity | antifungal activity in vitro (fungi; listed as BU-3285 T): relatively good and broad antifungal profile | IC50 [3]: 13.3 µg/mL (≈ 28.3 µM) | IC50 [4]: 3.4 µg/mL (≈ 7.23 µM) | IC50 [5]: 3.8 µg/mL (≈ 8.08 µM) | MIC [6]: 25 µg/mL (≈ 53.1 µM) | MIC (T. mentagrophytes #4329): 12.5 µg/mL (≈ 26.6 µM) | inhibition of protein synthesis (specificity) ([7]; L-1210 leukemia cells): specific inhibitor of protein synthesis | IC50 ([7]; Mus musculus, L1210, labelled precursor, 15 min + 60 min, 37° C., read-out: IC50, protein synthesis): 0.78 µg/mL | inhibition of protein synthesis stronger than RNA synthesis ([7]; protein vs RNA synthesis, L1210 cells): 18 times | Body wt. change on day 6 (L1210 leukemia; 0.1 mg/kg/day ip): +2.3 g | MST (median survival time) (L1210 leukemia; 0.1 mg/kg/day ip): 8.0 days | T/C (L1210 leukemia; [8]): 114% | Body wt. change on day 6 (L1210 leukemia; 0.3 mg/kg/day ip): +2.5 g | MST (median survival time) (L1210 leukemia; 0.3 mg/kg/day ip): 8.0 days | T/C (L1210 leukemia; [9]): 114% | Body wt. change on day 6 (L1210 leukemia; 1 mg/kg/day ip): +1.5 g | MST (median survival time) (L1210 leukemia; 1 mg/kg/day ip): 9.0 days | T/C (L1210 leukemia; [10]): 129% | Body wt. change on day 6 (L1210 leukemia; 3 mg/kg/day ip): +1.5 g | MST (median survival time) (L1210 leukemia; 3 mg/kg/day ip): 9.0 days | T/C (L1210 leukemia; [11]): 129% | Body wt. change on day 6 (L1210 leukemia; 10 mg/kg/day ip): 0.0 g | MST (median survival time) (L1210 leukemia; 10 mg/kg/day ip): 10.5 days | T/C (L1210 leukemia; [12]): 150% | activity compared with mitomycin C (L1210 leukemia; L1210, in terms of minimum effective dose): somewhat weaker | in vivo antitumor activity (L1210 leukemia; L1210 leukemia in mice): potent in vivo inhibitory activity; also recorded: good antitumor activity | MIC (C. albicans A9540): 25 µg/mL (≈ 53.1 µM) | Body wt. change on day 4 (P388 leukemia; 0.1 mg/kg/day ip): +1.5 g | MST (median survival time) (P388 leukemia; 0.1 mg/kg/day ip): 12.0 days | T/C (P388 leukemia; [8]): 120% | Body wt. change on day 4 (P388 leukemia; 0.3 mg/kg/day ip): +1.0 g | MST (median survival time) (P388 leukemia; 0.3 mg/kg/day ip): 13.0 days | T/C (P388 leukemia; [9]): 130% | Body wt. change on day 4 (P388 leukemia; 1 mg/kg/day ip): +1.0 g | MST (median survival time) (P388 leukemia; 1 mg/kg/day ip): 14.0 days | T/C (P388 leukemia; [10]): 140% | Body wt. change on day 4 (P388 leukemia; 3 mg/kg/day ip): +1.5 g | MST (median survival time) (P388 leukemia; 3 mg/kg/day ip): 15.0 days | T/C (P388 leukemia; [11]): 150% | Body wt. change on day 4 (P388 leukemia; 10 mg/kg/day ip): 0.0 g | MST (median survival time) (P388 leukemia; 10 mg/kg/day ip): 16.0 days | T/C (P388 leukemia; [12]): 160% | activity compared with mitomycin C (P388 leukemia; P388, in terms of minimum effective dose): comparable | in vivo antitumor activity (P388 leukemia; P388 leukemia in mice): potent in vivo inhibitory activity; also recorded: good antitumor activity
